Laboratory results as given in patent publication US20240245682A1, “ALPHA-V-BETA-8 INTEGRIN INHIBITORS AND USES THEREOF” (Pliant Therapeutics, Inc., priority 2022, published 2024).
pIC50: −log10 of the molar value.

How the values were obtained:
Assay in all cases: AlphaScreen proximity-based integrin binding assay with TGF-b1 LAP
Conditions in all cases: values given as ranges
[1] = biological target: human integrin αVβ8 (Homo sapiens, UniProt P06756+P26012)
Protocol: (§1) The biochemical potency of the disclosed compounds was determined using the AlphaScreen® (Perkin Elmer, Waltham, MA) proximity-based assay as described previously (Ullman E F et al., Luminescent oxygen channeling immunoassay: Measurement of particle binding kinetics by chemiluminescence. Proc. Natl. Acad. Sci. USA, Vol. 91, pp. 5426-5430, June 1994, herein incorporated by reference in its entirety). To gauge the potency of inhibitors of binding to each of human integrins αVβ1, αVβ6, and αVβ8, inhibitor compounds were independently incubated with one of αVβ1, αVβ6, or αVβ8, together with TGF-b1 LAP and biotinylated anti-LAP antibody plus acceptor and donor beads, following the manufacture's recommendations. The donor beads were coated with streptavidin. […] All incubations occurred at room temperatures in 50 mM Tris-HCl, pH 7.5, 0.1% BSA supplemented with 1 mM each CaCl2 and MgCl2.
(§2) The order of reagent addition was as follows:
(§3) 1. αVβ1, αVβ6, or αVβ8 integrin, test inhibitor compound, LAP, biotinylated anti-LAP antibody and acceptor beads were all added together.
(§4) 2. After 2 hours, donor beads were added. After another 30 minute incubation, samples were then read.
(§5) Integrin binding was evaluated by exciting donor beads at 680 nm, and measuring the fluorescent signal produced, between 520-620 nm, using a Biotek Instruments (Winooski, VT, USA) SynergyNeo2 multimode plate reader. Compound potency was assessed by determining inhibitor concentrations required to reduce fluorescent light output by 50%. Data analysis for IC50 determinations was carried out by nonlinear four parameter logistic regression analysis using Dotmatics ELN Software (Core Informatics Inc., Branford, Ct). […] Comp #in the Table and Examples below refers to the compound of the corresponding Example number as described in the Synthetic Examples.

[2] = biological target: human integrin αVβ6 (Homo sapiens, UniProt P06756+P18564)
Protocol: as §1, §2, §3, §4, §5

[3] = biological target: human integrin αVβ1 (Homo sapiens, UniProt P05556+P06756)
Protocol: as §1, §2, §3, §4, §5

human integrin αVβ8, sequence (P06756 31-992 limits assumed): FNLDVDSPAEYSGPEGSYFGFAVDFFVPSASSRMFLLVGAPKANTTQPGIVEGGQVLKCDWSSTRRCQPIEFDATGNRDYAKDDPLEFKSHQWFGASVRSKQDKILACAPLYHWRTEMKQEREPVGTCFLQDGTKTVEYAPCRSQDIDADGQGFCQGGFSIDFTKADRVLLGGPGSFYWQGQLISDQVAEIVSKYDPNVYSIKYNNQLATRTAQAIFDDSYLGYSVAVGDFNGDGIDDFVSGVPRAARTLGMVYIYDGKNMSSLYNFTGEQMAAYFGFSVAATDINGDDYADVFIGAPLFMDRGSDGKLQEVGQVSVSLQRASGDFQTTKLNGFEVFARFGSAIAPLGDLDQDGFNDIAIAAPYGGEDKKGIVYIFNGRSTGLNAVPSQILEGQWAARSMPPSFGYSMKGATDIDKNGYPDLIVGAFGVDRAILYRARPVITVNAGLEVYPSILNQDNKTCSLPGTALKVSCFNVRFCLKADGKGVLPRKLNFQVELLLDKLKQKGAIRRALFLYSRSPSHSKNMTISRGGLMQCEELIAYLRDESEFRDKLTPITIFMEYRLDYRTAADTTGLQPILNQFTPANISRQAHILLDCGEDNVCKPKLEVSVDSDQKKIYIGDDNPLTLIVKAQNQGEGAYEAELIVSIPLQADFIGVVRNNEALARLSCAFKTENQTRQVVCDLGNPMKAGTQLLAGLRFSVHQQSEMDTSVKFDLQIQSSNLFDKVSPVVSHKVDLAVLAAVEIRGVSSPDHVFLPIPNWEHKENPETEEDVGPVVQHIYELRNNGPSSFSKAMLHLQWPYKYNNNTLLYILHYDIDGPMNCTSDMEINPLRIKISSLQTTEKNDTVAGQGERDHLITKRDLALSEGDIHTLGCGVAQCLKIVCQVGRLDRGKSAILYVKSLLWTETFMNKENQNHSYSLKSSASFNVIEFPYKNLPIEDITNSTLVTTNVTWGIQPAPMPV
human integrin αVβ8, sequence (P26012 43-684 limits assumed): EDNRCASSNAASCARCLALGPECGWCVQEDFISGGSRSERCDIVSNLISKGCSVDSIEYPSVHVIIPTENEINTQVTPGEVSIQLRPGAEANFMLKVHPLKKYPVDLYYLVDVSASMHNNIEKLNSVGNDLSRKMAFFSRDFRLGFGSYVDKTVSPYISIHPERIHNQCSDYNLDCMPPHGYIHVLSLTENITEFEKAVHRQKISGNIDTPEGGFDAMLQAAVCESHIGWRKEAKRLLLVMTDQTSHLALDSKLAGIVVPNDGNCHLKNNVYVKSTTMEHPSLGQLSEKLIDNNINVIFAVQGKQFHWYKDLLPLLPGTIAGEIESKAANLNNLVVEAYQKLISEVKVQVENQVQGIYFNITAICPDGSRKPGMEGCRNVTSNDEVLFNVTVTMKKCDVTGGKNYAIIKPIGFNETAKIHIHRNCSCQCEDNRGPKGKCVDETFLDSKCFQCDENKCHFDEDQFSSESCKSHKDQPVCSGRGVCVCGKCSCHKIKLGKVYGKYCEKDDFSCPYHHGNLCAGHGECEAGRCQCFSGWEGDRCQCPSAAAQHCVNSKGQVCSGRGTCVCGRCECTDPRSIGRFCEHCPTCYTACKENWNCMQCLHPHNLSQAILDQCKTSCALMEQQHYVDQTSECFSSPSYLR
human integrin αVβ6, sequence (P06756 31-992 limits assumed): as the sequence (P06756 31-992 limits assumed) above
human integrin αVβ6, sequence (P18564 22-707 limits assumed): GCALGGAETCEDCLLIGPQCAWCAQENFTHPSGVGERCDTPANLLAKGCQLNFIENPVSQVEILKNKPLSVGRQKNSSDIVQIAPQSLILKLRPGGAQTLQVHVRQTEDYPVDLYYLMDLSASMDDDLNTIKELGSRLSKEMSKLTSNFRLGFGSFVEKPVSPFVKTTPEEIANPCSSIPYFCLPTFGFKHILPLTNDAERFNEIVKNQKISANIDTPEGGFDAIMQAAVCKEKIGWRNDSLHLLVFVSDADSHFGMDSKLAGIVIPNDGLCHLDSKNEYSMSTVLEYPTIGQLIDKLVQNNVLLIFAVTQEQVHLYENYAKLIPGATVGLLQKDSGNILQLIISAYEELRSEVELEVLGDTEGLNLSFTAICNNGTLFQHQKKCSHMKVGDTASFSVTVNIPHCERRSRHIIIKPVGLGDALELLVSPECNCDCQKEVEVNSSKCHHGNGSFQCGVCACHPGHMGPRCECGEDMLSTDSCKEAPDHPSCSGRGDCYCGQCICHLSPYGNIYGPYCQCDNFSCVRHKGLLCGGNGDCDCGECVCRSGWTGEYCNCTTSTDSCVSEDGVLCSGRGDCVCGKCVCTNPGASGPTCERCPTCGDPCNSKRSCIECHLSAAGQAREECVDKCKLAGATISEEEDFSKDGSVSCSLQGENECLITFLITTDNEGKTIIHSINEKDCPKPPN
human integrin αVβ1, sequence (P06756 31-992 limits assumed): as the sequence (P06756 31-992 limits assumed) above
human integrin αVβ1, sequence (P05556 21-728 limits assumed): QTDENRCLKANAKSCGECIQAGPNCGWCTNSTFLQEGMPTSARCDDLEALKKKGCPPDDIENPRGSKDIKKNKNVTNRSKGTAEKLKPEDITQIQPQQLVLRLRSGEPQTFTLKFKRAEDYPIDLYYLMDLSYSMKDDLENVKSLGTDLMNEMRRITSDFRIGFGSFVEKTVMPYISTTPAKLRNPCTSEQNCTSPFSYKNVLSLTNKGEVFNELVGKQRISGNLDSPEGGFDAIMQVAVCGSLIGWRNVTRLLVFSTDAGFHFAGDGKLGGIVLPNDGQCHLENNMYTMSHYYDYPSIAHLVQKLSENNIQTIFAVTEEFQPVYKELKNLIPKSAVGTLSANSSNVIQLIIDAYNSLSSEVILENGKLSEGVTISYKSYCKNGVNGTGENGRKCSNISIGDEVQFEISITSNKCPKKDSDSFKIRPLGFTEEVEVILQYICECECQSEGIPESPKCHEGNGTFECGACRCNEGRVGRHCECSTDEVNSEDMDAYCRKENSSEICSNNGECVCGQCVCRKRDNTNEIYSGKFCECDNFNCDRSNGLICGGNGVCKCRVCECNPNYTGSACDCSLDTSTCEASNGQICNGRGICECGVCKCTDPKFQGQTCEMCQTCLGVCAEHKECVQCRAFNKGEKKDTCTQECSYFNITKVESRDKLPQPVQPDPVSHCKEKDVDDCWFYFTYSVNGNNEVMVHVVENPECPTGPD

SMILES | pIC50 [1] | pIC50 [2] | pIC50 [3]
CC(C)(C(=O)N[C@@H](CCOCCCCc1ccc2c(n1)NCCC2)C(=O)O)c1cc(F)cnc1Cl [Compound 23, N-(2-(2-chloro-5-fluoropyridin-3-yl)-2-methylpropanoyl)-O-(4-(5,6,7,8-tetrahydro-1,8-naphthyridin-2-yl)butyl)-L-homoserine] | 6.82 to 7.30 | 6.30 to 6.60 | > 7.30
CC(C)(C(=O)N[C@@H](CCOCCCCc1ccc2c(n1)NCCC2)C(=O)O)c1c(F)cccc1OC(F)F [Compound 5, N-(2-(2-(difluoromethoxy)-6-fluorophenyl)-2-methylpropanoyl)-O-(4-(5,6,7,8-tetrahydro-1,8-naphthyridin-2-yl)butyl)-L-homoserine] | 6.82 to 7.30 | ≤ 6.30 | > 7.30
COc1cccc(=O)n1C1(C(=O)N[C@@H](CCOCCCCc2ccc3c(n2)NCCC3)C(=O)O)CC1 [Compound 92, N-(1-(6-methoxy-2-oxopyridin-1(2H)-yl)cyclopropane-1-carbonyl)-O-(4-(5,6,7,8-tetrahydro-1,8-naphthyridin-2-yl)butyl)-L-homoserine] | 6.82 to 7.30 | < 6.30 | 6.82 to 7.30
O=C(O)[C@H](CCOCCCCc1ccc2c(n1)NCCC2)NC(=O)C1(n2ccc(Cl)n2)CC1 [Compound 55, N-(1-(3-chloro-1H-pyrazol-1-yl)cyclopropane-1-carbonyl)-O-(4-(5,6,7,8-tetrahydro-1,8-naphthyridin-2-yl)butyl)-L-homoserine] | 6.82 to 7.30 | ≤ 6.30 | > 7.30
CC(C)(C(=O)NC(CCOCCCCc1ccc2c(n1)NCCC2)C(=O)O)c1ccccc1 (stereo not drawn) [Compound 1, N-(2-methyl-2-phenylpropanoyl)-O-(4-(5,6,7,8-tetrahydro-1,8-naphthyridin-2-yl)butyl)homoserine] | 6.82 to 7.30 | ≤ 6.30 | > 7.30
Cc1ncnc(C)c1C1(C(=O)N[C@@H](CCOCCCCc2ccc3c(n2)NCCC3)C(=O)O)CC1 [Compound 41, N-(1-(4,6-dimethylpyrimidin-5-yl)cyclopropane-1-carbonyl)-O-(4-(5,6,7,8-tetrahydro-1,8-naphthyridin-2-yl)butyl)-L-homoserine] | 6.82 to 7.30 | ≤ 6.30 | > 7.30
O=C(N[C@@H](CCOCCCCc1ccc2c(n1)NCCC2)C(=O)O)c1ccnn1-c1ccccc1 [Compound 99, N-(1-phenyl-1H-pyrazole-5-carbonyl)-O-(4-(5,6,7,8-tetrahydro-1,8-naphthyridin-2-yl)butyl)-L-homoserine] | 6.82 to 7.30 | > 7.30 | > 7.30
O=C(O)[C@H](CCOCCCCc1ccc2c(n1)NCCC2)NC(=O)C1(c2cccc(F)c2)CCOCC1 [Compound 88, N-(4-(3-fluorophenyl)tetrahydro-2H-pyran-4-carbonyl)-O-(4-(5,6,7,8-tetrahydro-1,8-naphthyridin-2-yl)butyl)-L-homoserine] | > 7.30 | < 6.30 | > 7.30
COc1ccc(Cl)c(C2(C(=O)N[C@@H](CCOCCCCc3ccc4c(n3)NCCC4)C(=O)O)CC2)n1 [Compound 26, N-(1-(3-chloro-6-methoxypyridin-2-yl)cyclopropane-1-carbonyl)-O-(4-(5,6,7,8-tetrahydro-1,8-naphthyridin-2-yl)butyl)-L-homoserine] | > 7.30 | 6.30 to 6.60 | > 7.30
O=C(O)[C@H](CCOCCCCc1ccc2c(n1)NCCC2)NC(=O)C1(c2ncncc2Cl)CC1 [Compound 49, N-(1-(5-chloropyrimidin-4-yl)cyclopropane-1-carbonyl)-O-(4-(5,6,7,8-tetrahydro-1,8-naphthyridin-2-yl)butyl)-L-homoserine] | > 7.30 | ≤ 6.30 | > 7.30
COc1nccc(Cl)c1C1(C(=O)N[C@@H](CCOCCCCc2ccc3c(n2)NCCC3)C(=O)O)CC1 [Compound 44, N-(1-(4-chloro-2-methoxypyridin-3-yl)cyclopropane-1-carbonyl)-O-(4-(5,6,7,8-tetrahydro-1,8-naphthyridin-2-yl)butyl)-L-homoserine] | 6.82 to 7.30 | ≤ 6.30 | > 7.30
COc1cncc(Cl)c1C1(C(=O)N[C@@H](CCOCCCCc2ccc3c(n2)NCCC3)C(=O)O)CC1 [Compound 34, N-(1-(3-chloro-5-methoxypyridin-4-yl)cyclopropane-1-carbonyl)-O-(4-(5,6,7,8-tetrahydro-1,8-naphthyridin-2-yl)butyl)-L-homoserine] | > 7.30 | ≤ 6.30 | > 7.30
O=C(O)[C@H](CCOCCCCc1ccc2c(n1)NCCC2)NC(=O)C1(n2cncc2C(F)F)CC1 [Compound 64, N-(1-(5-(difluoromethyl)-1H-imidazol-1-yl)cyclopropane-1-carbonyl)-O-(4-(5,6,7,8-tetrahydro-1,8-naphthyridin-2-yl)butyl)-L-homoserine] | 6.82 to 7.30 | ≤ 6.30 | > 7.30
O=C(O)[C@H](CCOCCCCc1ccc2c(n1)NCCC2)NC(=O)C1(c2ccccc2)CC1 [Compound 10, N-(1-phenylcyclopropane-1-carbonyl)-O-(4-(5,6,7,8-tetrahydro-1,8-naphthyridin-2-yl)butyl)-L-homoserine] | 6.82 to 7.30 | ≤ 6.30 | > 7.30

Now from value to compound:

pIC50 [1] | pIC50 [2] | pIC50 [3] | SMILES
> 7.30 | ≤ 6.30 | > 7.30 | O=C(O)[C@H](CCOCCCCc1ccc2c(n1)NCCC2)NC(=O)C1(n2ccnc2C(F)(F)F)CC1 [Compound 70, O-(4-(5,6,7,8-tetrahydro-1,8-naphthyridin-2-yl)butyl)-N-(1-(2-(trifluoromethyl)-1H-imidazol-1-yl)cyclopropane-1-carbonyl)-L-homoserine]
> 7.30 | ≤ 6.30 | > 7.30 | Cc1nc(C)c(C2(C(=O)N[C@@H](CCOCCCCc3ccc4c(n3)NCCC4)C(=O)O)CC2)c(Cl)n1 [Compound 60, N-(1-(4-chloro-2,6-dimethylpyrimidin-5-yl)cyclopropane-1-carbonyl)-O-(4-(5,6,7,8-tetrahydro-1,8-naphthyridin-2-yl)butyl)-L-homoserine]
> 7.30 | 6.30 to 6.60 | > 7.30 | O=C(O)[C@H](CCOCCCCc1ccc2c(n1)NCCC2)NC(=O)C1(n2nc(Cl)cc2Cl)CC1 [Compound 69, N-(1-(3,5-dichloro-1H-pyrazol-1-yl)cyclopropane-1-carbonyl)-O-(4-(5,6,7,8-tetrahydro-1,8-naphthyridin-2-yl)butyl)-L-homoserine]
> 7.30 | ≤ 6.30 | > 7.30 | O=C(O)[C@H](CCOCCCCc1ccc2c(n1)NCCC2)NC(=O)C1(c2cncnc2C(F)F)CC1 [Compound 59, N-(1-(4-(difluoromethyl)pyrimidin-5-yl)cyclopropane-1-carbonyl)-O-(4-(5,6,7,8-tetrahydro-1,8-naphthyridin-2-yl)butyl)-L-homoserine]
> 7.30 | ≤ 6.30 | 6.82 to 7.30 | Cc1cccnc1C1(C(=O)N[C@@H](CCOCCCCc2ccc3c(n2)NCCC3)C(=O)O)CC1 [Compound 29, N-(1-(3-methylpyridin-2-yl)cyclopropane-1-carbonyl)-O-(4-(5,6,7,8-tetrahydro-1,8-naphthyridin-2-yl)butyl)-L-homoserine]
> 7.30 | ≤ 6.30 | > 7.30 | O=C(O)[C@H](CCOCCCCc1ccc2c(n1)NCCC2)NC(=O)C1(c2[nH]ncc2Cl)CC1 [Compound 71, N-(1-(4-chloro-1H-pyrazol-5-yl)cyclopropane-1-carbonyl)-O-(4-(5,6,7,8-tetrahydro-1,8-naphthyridin-2-yl)butyl)-L-homoserine]
> 7.30 | < 6.30 | > 7.30 | O=C(O)[C@H](CCOCCCCc1ccc2c(n1)NCCC2)NC(=O)C1(n2c(F)cccc2=O)CC1 [Compound 93, N-(1-(6-fluoro-2-oxopyridin-1(2H)-yl)cyclopropane-1-carbonyl)-O-(4-(5,6,7,8-tetrahydro-1,8-naphthyridin-2-yl)butyl)-L-homoserine]
> 7.30 | ≤ 6.30 | > 7.30 | C[C@H](C(=O)N[C@@H](CCOCCCCc1ccc2c(n1)NCCC2)C(=O)O)c1ccccc1 [Compound 3, N—((S)-2-phenylpropanoyl)-O-(4-(5,6,7,8-tetrahydro-1,8-naphthyridin-2-yl)butyl)-L-homoserine]
> 7.30 | ≤ 6.30 | > 7.30 | Cc1ncccc1C1(C(=O)N[C@@H](CCOCCCCc2ccc3c(n2)NCCC3)C(=O)O)CC1 [Compound 13, N-(1-(2-methylpyridin-3-yl)cyclopropane-1-carbonyl)-O-(4-(5,6,7,8-tetrahydro-1,8-naphthyridin-2-yl)butyl)-L-homoserine]
